Results as given in patent US20250051391A1, “PEPTIDE INHIBITORS AND METHODS FOR INHIBITING PROTEIN AGGREGATION IN NEURONS AND NEURODEGENERATIVE DISEASES” (THE GOVERNING COUNCIL OF THE UNIVERSITY OF TORONTO, priority 2021, published 2025).
Ends that are not written are not given here.

Key:
[1] = test system: SNCA triplication fibroblasts; assay: SNCA triplication fibroblasts from a PD patient transduced with AAV peptides; format: cell-based, human
Experimental: HEK293T cells, tet-off split luciferase a-syn cells, tet-off parent cells and SH-SY5Y cell lines were maintained in DMEM (ATCC) supplemented with 10% FBS and 1% pen/strep/glutamine, and the appropriate selection antibiotics when required. tet-off split luciferase a-syn cells and tet-off parent cells were kept with doxycycline at 1 ng/mL for inhibition of gene expression. SNCA triplication fibroblasts were obtained from NINDS (National Institute of Neurological Disorders and Stroke) and maintained in DMEM supplemented with 10% FBS and 1% pen/strep/glutamine. HA antibodies were obtained from Santa Cruz (7392) and Flag antibodies were purchased from Sigma (A8592). GFP antibodies were purchased from Abcam (ab290).
The Lysosome Intracellular Activity Assay kit was purchased from Abcam and used per manufacturer's instructions (ab234622). […] For HEK293 cells, cells were re-suspended in PBS containing DMSO or Leupeptin and analyzed by FACS. […]
After fixation, cells were permeabilized with 0.2% Triton X-100 for 15 min, washed 3 times with PBS and then incubated with blocking solution (1% BSA, 22.52 mg/mL glycine, 0.1% Tween-20 in PBS) for 1 h. […] Following another 3 PBS washes, nuclei were counterstained with DAPI (ThermoFisher) and then coverslips were mounted on slides using fluorescence mounting medium (DAKO) and sealed using clear nail varnish.

[2] = test system: HEK293 cells overexpressing human a-syn (WT); assay: Cytotoxicity screen of lentiviral 7-mer peptide library, Alpha Syn (WT) cells under MG132; format: cell-based
Description: A screening system to discover candidate peptides to perturb endogenous PPIs based on libraries of short linear interaction motifs that mediate a large fraction (˜30%) of human PPIs (10-12) was recently developed. Here, a lentiviral library of 50,549 7-mer peptide motifs (13) on a green fluorescent protein (GFP) scaffold (FIG. 1A) was used. Cells in a pooled format were infected and the amino acid sequence of each peptide served as its own barcode. By using a low multiplicity of infection followed by puromycin selection, each infected cell expressed one unique GFP-peptide. Peptides that reduced a-syn-mediated cytotoxicity or a-syn oligomers in parallel (FIG. 1A), were screened for.
To cause cytotoxicity relevant to PD, proteostatic stress in HEK293 cells was induced by inhibiting the proteasome with MG132 and inducing the overexpression of human a-syn (WT) from idiopathic PD in one screen and the more toxic A53T mutant from familial PD in a second screen. The combination of a-syn overexpression and pharmacological proteasome inhibition led to death of most cells, with only those that expressed a protective peptide surviving. By extracting genomic DNA from the surviving cells and amplifying the peptide coding sequences, the protective peptides (FIG. 1A) were identified.
PCR primers that included the Illumina adaptor sequences were used to amplify peptide coding sequences recovered from selection and cell sorting. Results were demultiplexed, and peptide counts were tallied. After demultiplexing, only reads with an average quality Phred score of >30 were selected, and frequencies were calculated. Finally, the reads were then normalized to the total number of peptides read for that sample population, and a scalar factor was applied. In parallel, ˜25 individual colonies were Sanger sequenced to compare to the NGS data.
Lentiviruses were made in a 15 cm dish format by transfecting packaging cells (293T) with a three-plasmid system as previously described. Viral transduction of HEK293T cells, tet-off split luciferase a-syn cells, tet-off parent cells, and SH-SY5Y cells were performed with a multiplicity of infection of 0.3 (MOI=0.3). Infected cells were selected in puromycin-containing medium to eliminate uninfected cells and three aliquots of cells were collected for sampling of the initial (TO) cell population. Cells were treated with MG132 at concentrations of 0 μM, 10 μM, 25 μM or 50 μM. For the cell viability screen, surviving cells were collected and gDNA was extracted for identification of peptide inhibitors of cell toxicity. For the inhibition of a-syn aggregation screen, split YFP-a-syn constructs were transfected following stable expression of the peptides. Cells were sorted based on their GFP fluorescence intensities with a FACSVantage SE cell sorter (BD Bioscience).
Genomic DNA (gDNA) from peptide expressing cells at different time-points was extracted using QIAamp DNA Blood Mini Kit. PCR amplifications of peptides from gDNA in parallel with the lentiviral plasmid library (naïve library) were performed using indexed Illumina PCR primers to incorporate both the Illumina adapter sequences and indexing sequences. Each 50 μl reaction contained 3.2 μg of template, 2×PCR buffer, 2× enhancer solution, 300 μM each dNTP, 900 nM each of Adapter A (5′-[…]-[…]-3′) (SEQ ID NO: 42) and Adapter B (5′-[…]-[…]-3′) (SEQ ID NO: 43), 1 mM MgSO4, 3.75 units of Platinum Pfx polymerase, and water to 50 μl. The PCR reaction was performed by denaturing at 94° C. for 5 minutes, followed by cycling (94° C. for 30 seconds, 65° C. for 30 seconds, 68° C. for 30 seconds)×28 cycles, 68° C. for 5 minutes, then cooling to 4° C. The resulting 244 bp product was purified by electrophoresis in 2% agarose followed by gel extraction. Peptide libraries were quantified using Quant-It assay (Invitrogen) and pooled. […]

For DEEIERQLKALG [PDpep1.3], the “lysosomal activity (lysosomal flux assay)” value [1] was “increased lysosomal activity” and the a-syn fluorescence ([1]; RFP-tagged peptides, vs Scramble1.3) was “reduced a-syn fluorescence”.

For “IPIQLKA [PDpep1, top hit of all screens; maps to CHMP2B residues 203-209]”, the “Slope Norm Reads” value [2] was 3.45, the “Reads 0 uM MG132” value ([2]; normalized Illumina peptide counts, 0 uM MG132) was 90 and the “Reads 10 UM MG132” value ([2]; normalized Illumina peptide counts, 10 µM MG132) was 1. For the same substance, the “Reads 25 UM MG132” value ([2]; normalized Illumina peptide counts, 25 µM MG132) was 1629 and the “Reads 50 UM MG132” value ([2]; normalized Illumina peptide counts, 50 µM MG132) was 3375.
